Marks after values point to notes of the source that are not given here.
What was measured:
[1] = system: western corn rootworm (WCR) adults; settings: per sticky trap; cited from earlier work
rootworm beetles = test: Small-plot comparison of insecticides in TEX×PEP dry ground bait; assay type: in vivo; settings: 0.01-0.1% (wt/wt); 1- to 3.3-m2 plots of corn and cucurbits
Experimental: Bait applications to evaluate various insecticides. The relative effectiveness of a variety of insecticides incorporated at 0.01-0.1% (wt/wt) in TEX×PEP dry ground bait was compared. The following insecticides were tested: bendiocarb, carbaryl, carbofuran, methomyl, oxamyl; dimethoate, malathion, isofenphos, phospholan, and mephospholan; and permethrin, cypermethrin, fenvalerate, and flucythrinate. […] The overall greater effectiveness of the carbamates in these small-plot tests is attributed to their rapid kill and lack of repellent effect. The pyrethroids were somewhat repellent to the rootworm beetles.

D. barberi [2] = test: Sticky trap attraction in prairie habitat, Trelease Woods (Example 2); assay type: in vivo, Diabrotica barberi; settings: 100 mg per trap, n = 4
Experimental: (§1) The candidate lures in all experiments were purchased commercially and exceeded 98% purity. The test chemicals were applied by capillary micropipettes to cotton dental wicks which were attached to the tops of 1.0 liter cylindrical paper cartons covered with TangleTrap™ (Tanglefoot Co., Grand Rapids, Mich.). The sticky trap techniques used were as described in Example 1. Cinnamyl alcohol and para-methoxycinnamaldehyde, which are solids, were dissolved in glass-distilled acetone prior to dosing the cotton wicks. […]. Control traps had untreated cotton wicks. Four replicates of treated and untreated traps were randomly positioned 10 meters apart on top of 1 m high posts along the border of a eight foot wide strip cut through the middle of a 4.05 ha relict prairie at Trelease Woods (ca. two miles northeast of Urbana, Ill.). The field consisted primarily of Andropogon gerardii Vitman (big bluestem) and a variety of composites. The tests were conducted in mid-August of two years and were timed to coincide with the presence of D. cristata and D. barberi adults in the flower heads of Canada thistle (Carduus arvensis Robson). In the second year, several new attractants of D. v. virgifera and D. barberi were tested in Trelease Woods and along the edge of a 0.8 ha field of hybrid corn located at the Pomology South Farms, Urbana, Ill. Attraction of Diabrotica species to the various lures was measured by the mean number of beetles caught after 24-h. On one date in late August of the first year, D. cristata and D. barberi were removed from the traps and sexed in the laboratory. The significance of treatments in all tests was determined by an analysis of variance and the individual means were separated by Duncan's multiple range test (Statistical Package for Social Science, Nie, et al., SPSS: statistical package for the social sciences, 2nd ed. McGraw-Hill, New York (1975). Data were logarithmically transformed for statistical analysis and the means and standard deviations are presented for the untransformed data.

D. cristata = test: as above; assay type: in vivo, Diabrotica cristata; settings: 100 mg per trap, n = 4
Experimental: as §1

D. v. virgifera [3] = test: as above; assay type: in vivo, Diabrotica virgifera virgifera; settings: 100 mg per trap, n = 4
Experimental: as §1

D. u. howardi [4] = test: as above; assay type: in vivo, Diabrotica undecimpunctata howardi; settings: 100 mg per trap, n = 4
Experimental: as §1

D. barberi [5] = test: Sticky trap attraction along hybrid corn, Pomology South Farms (Example 2); assay type: in vivo, Diabrotica barberi; settings: 100 mg per trap, n = 4
Experimental: (§2) The candidate lures in all experiments were purchased commercially and exceeded 98% purity. The test chemicals were applied by capillary micropipettes to cotton dental wicks which were attached to the tops of 1.0 liter cylindrical paper cartons covered with TangleTrap™ (Tanglefoot Co., Grand Rapids, Mich.). The sticky trap techniques used were as described in Example 1. Cinnamyl alcohol and para-methoxycinnamaldehyde, which are solids, were dissolved in glass-distilled acetone prior to dosing the cotton wicks. All treatments were applied at a dosage of 100 mg per trap. 1,2,4-trimethoxybenzene, indole, and trans-cinnamaldehyde were mixed in a ratio of 1:1:1, by weight, immediately prior to dosing the cotton wicks. Control traps had untreated cotton wicks. Four replicates of treated and untreated traps were randomly positioned 10 meters apart on top of 1 m high posts along the border of a eight foot wide strip cut through the middle of a 4.05 ha relict prairie at Trelease Woods (ca. two miles northeast of Urbana, Ill.). The field consisted primarily of Andropogon gerardii Vitman (big bluestem) and a variety of composites. The tests were conducted in mid-August of two years and were timed to coincide with the presence of D. cristata and D. barberi adults in the flower heads of Canada thistle (Carduus arvensis Robson). In the second year, several new attractants of D. v. virgifera and D. barberi were tested in Trelease Woods and along the edge of a 0.8 ha field of hybrid corn located at the Pomology South Farms, Urbana, Ill. Attraction of Diabrotica species to the various lures was measured by the mean number of beetles caught after 24-h. On one date in late August of the first year, D. cristata and D. barberi were removed from the traps and sexed in the laboratory. The significance of treatments in all tests was determined by an analysis of variance and the individual means were separated by Duncan's multiple range test (Statistical Package for Social Science, Nie, et al., SPSS: statistical package for the social sciences, 2nd ed. McGraw-Hill, New York (1975). Data were logarithmically transformed for statistical analysis and the means and standard deviations are presented for the untransformed data.

D. v. virgifera [6] = test: as above; assay type: in vivo, Diabrotica virgifera virgifera; settings: 100 mg per trap, n = 4
Experimental: as §2

D. u. howardi [7] = test: as above; assay type: in vivo, Diabrotica undecimpunctata howardi; settings: 100 mg per trap, n = 4
Experimental: as §2

NCR = test: Limit of response rating of squash blossom volatiles on sticky traps (Example 5); assay type: in vivo, Diabrotica barberi; settings: 24 hour; four replicate traps; 0.01 mg to 200 mg
Outline: (§3)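 Adult Diabrotica beetles were tested against cylindrical sticky traps baited with cotton wicks holding 0.01 mg to 200 mg of individual Cucurbita maxima blossom volatiles. Response limit rated by trap catch.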

SCR = test: as above; assay type: in vivo, Diabrotica undecimpunctata howardi; settings: 24 hour; four replicate traps; 0.01 mg to 200 mg
Outline: as §3

WCR = test: as above; assay type: in vivo, Diabrotica virgifera virgifera; settings: 24 hour
Outline: as §3

SMILES: CCC(=O)OC(C)CCCCCC(C)CC (stereo not drawn) [8-methyl-2-decylpropanoate]
- amount per sticky trap that attracted male WCR [1]: 5 µg

SMILES: CCOP(=S)(NC(C)C)Oc1ccccc1C(=O)OC(C)C (stereo not drawn) [Isofenphos, isofenphos]
- relative effectiveness of insecticides in TEX×PEP dry ground bait (rootworm beetles): most effective of the organophosphorus insecticides

SMILES: CNC(=O)Oc1cccc2c1OC(C)(C)O2 [bendicarb, bendiocarb]
- relative effectiveness of insecticides in TEX×PEP dry ground bait (rootworm beetles): more effective than the pyrethroids

SMILES: CNC(=O)Oc1cccc2ccccc12 [carbaryl]
- relative effectiveness of insecticides in TEX×PEP dry ground bait (rootworm beetles): more effective than the pyrethroids

SMILES: CNC(=O)Oc1cccc2c1OC(C)(C)C2 [carbofuran]
- relative effectiveness of insecticides in TEX×PEP dry ground bait (rootworm beetles): more effective than the pyrethroids

SMILES: CNC(=O)ON=C(C)SC [methomyl]
- relative effectiveness of insecticides in TEX×PEP dry ground bait (rootworm beetles): more effective than the pyrethroids

SMILES: CC(=O)/C=C/C1=C(C)CCCC1(C)C [β-ionone]
- Mean number of D. barberi per day (±standard deviation) (D. barberi [2]; August 11, 1987): 0.3 ± 0.5^ab per day
- Mean number of D. barberi per day (±standard deviation) (D. barberi [2]; August 14, 1987): 0.3 ± 0.5^a per day
- Mean number of D. cristata per day (±standard deviation) (D. cristata; August 11, 1987): 17.3 ± 8.7^b per day
- Mean number of D. cristata per day (±standard deviation) (D. cristata; August 14, 1987): 5.3 ± 2.2^b per day
- Mean number of D. v. virgifera per day (±standard deviation) (D. v. virgifera [3]; August 11, 1987): 4.0 ± 0.8^b per day
- Mean number of D. v. virgifera per day (±standard deviation) (D. v. virgifera [3]; August 14, 1987): 2.3 ± 1.3^b per day
- Mean number of D. u. howardi per day (±standard deviation) (D. u. howardi [4]; August 11, 1987): 0.3 ± 0.5^a per day
- Mean number of D. u. howardi per day (±standard deviation) (D. u. howardi [4]; August 14, 1987): 0.0^a per day
- Mean number of D. barberi per stick trap per day (±standard deviation) in corn (D. barberi [5]; August 7): 0.5 ± 0.7^a per stick trap per day
- Mean number of D. barberi per stick trap per day (±standard deviation) in corn (D. barberi [5]; August 18): 1.5 ± 1.0^a per stick trap per day
- Mean number of D. v. virgifera per stick trap per day (±standard deviation) in corn (D. v. virgifera [6]; August 7): 263.5 ± 94.6^cd per stick trap per day
- Mean number of D. v. virgifera per stick trap per day (±standard deviation) in corn (D. v. virgifera [6]; August 18): 89.0 ± 18.2^b per stick trap per day
- Mean number of D. u. howardi per stick trap per day (±standard deviation) in corn (D. u. howardi [7]; August 7): 1.8 ± 2.4^a per stick trap per day
- Mean number of D. u. howardi per stick trap per day (±standard deviation) in corn (D. u. howardi [7]; August 18): 0.5 ± 0.7^a per stick trap per day
- Attractant Rating NCR (by limit of response) (NCR): 0 (200)
- Attractant Rating SCR (by limit of response) (SCR): 0 (200)
- Attractant Rating WCR (by limit of response) (WCR; four replicate traps, 0.01 mg to 200 mg): +4 (1-3)
- LR for WCR (WCR; sticky traps): 3 mg

Reference: patent publication US6613317B1, “Volatile attractants for diabrotica species” (priority 1988, dated 2003)
